Holding throughout (format): biochemical
One experiment addresses CaMKIIγ(h) (Homo sapiens, UniProt Q13555). Put plainly: Kinase selectivity panel (residual activity at 1 μM). Conditions: inhibitor at 1 μM; read-out: residual kinase activity in % of maximal activity.
Another experiment addresses PAK2(h) (Homo sapiens, UniProt Q13177). Described as above. Conditions: inhibitor at 1 μM; read-out: residual kinase activity in % of maximal activity.
Another experiment has as its target CaMKIIβ(h) (Homo sapiens, UniProt Q13554). The description is as above. Conditions: inhibitor at 1 μM; read-out: residual kinase activity in % of maximal activity.
The target in a further experiment is PKBγ(h) (Homo sapiens, UniProt Q9Y243). The experiment is described as above. Conditions: inhibitor at 1 μM; read-out: residual kinase activity in % of maximal activity.
Sequence of PKBγ(h) (Q9Y243 whole entry): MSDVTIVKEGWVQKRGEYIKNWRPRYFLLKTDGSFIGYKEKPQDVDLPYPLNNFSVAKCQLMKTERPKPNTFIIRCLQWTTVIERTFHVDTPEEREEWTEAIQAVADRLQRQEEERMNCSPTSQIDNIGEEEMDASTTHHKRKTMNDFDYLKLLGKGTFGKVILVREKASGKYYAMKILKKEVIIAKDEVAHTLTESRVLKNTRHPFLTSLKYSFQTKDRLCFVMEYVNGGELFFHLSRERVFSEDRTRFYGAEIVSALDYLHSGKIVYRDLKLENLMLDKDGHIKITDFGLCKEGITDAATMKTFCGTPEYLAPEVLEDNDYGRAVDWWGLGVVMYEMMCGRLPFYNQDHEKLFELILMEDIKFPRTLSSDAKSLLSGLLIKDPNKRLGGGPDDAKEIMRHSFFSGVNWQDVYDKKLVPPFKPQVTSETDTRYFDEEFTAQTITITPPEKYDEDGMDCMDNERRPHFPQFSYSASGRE
The next experiment concerns the target GSK3β(h) (Homo sapiens, UniProt P49841). The experiment is described as above. Conditions: inhibitor at 1 μM; read-out: residual kinase activity in % of maximal activity.
The next experiment has as its target MAPK2(h) (Homo sapiens, UniProt P28482). The description is as above. The note with it: inhibitor at 1 μM; read-out: residual kinase activity in % of maximal activity.
The target in a further experiment is PDK1(h) (Homo sapiens, UniProt O15530). The description is as above. Conditions: inhibitor at 1 μM; read-out: residual kinase activity in % of maximal activity.
Sequence of PDK1(h) (O15530 whole entry): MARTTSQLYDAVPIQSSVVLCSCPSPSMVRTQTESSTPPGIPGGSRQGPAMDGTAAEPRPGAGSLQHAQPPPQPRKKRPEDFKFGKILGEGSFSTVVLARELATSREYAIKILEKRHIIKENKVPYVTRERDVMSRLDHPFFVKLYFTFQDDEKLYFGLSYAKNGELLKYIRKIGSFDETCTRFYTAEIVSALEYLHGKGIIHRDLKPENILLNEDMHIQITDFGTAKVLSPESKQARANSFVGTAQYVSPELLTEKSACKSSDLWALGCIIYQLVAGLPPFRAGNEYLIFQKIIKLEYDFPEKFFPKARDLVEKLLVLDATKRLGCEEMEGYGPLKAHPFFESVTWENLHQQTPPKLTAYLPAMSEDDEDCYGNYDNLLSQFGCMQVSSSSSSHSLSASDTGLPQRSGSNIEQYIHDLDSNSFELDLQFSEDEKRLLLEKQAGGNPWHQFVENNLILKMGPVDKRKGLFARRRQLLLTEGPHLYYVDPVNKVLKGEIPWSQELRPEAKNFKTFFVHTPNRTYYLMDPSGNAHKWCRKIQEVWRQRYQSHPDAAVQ
A further experiment addresses cKit(h) (Homo sapiens, UniProt P10721). Described as above. Conditions: inhibitor at 1 μM; read-out: residual kinase activity in % of maximal activity.
For a further experiment, the target named is MAPK1(h) (Homo sapiens, UniProt P27361). The description is as above. The note with it: inhibitor at 1 μM; read-out: residual kinase activity in % of maximal activity.
Sequence of MAPK1(h) (P27361 whole entry): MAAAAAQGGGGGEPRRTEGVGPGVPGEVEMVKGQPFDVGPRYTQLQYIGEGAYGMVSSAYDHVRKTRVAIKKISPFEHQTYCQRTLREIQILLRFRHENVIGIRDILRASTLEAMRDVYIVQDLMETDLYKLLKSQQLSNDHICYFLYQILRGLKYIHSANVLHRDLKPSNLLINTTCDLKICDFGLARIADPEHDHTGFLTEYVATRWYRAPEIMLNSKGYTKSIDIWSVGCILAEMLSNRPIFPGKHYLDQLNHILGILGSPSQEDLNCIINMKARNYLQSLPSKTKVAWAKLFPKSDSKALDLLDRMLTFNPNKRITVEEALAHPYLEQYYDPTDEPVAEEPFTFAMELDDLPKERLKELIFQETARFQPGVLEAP
In a further experiment the target is JNK2α2(h) (Homo sapiens, UniProt P45984). The description is as above. Conditions: inhibitor at 1 μM.
Sequence of JNK2α2(h) (P45984 whole entry): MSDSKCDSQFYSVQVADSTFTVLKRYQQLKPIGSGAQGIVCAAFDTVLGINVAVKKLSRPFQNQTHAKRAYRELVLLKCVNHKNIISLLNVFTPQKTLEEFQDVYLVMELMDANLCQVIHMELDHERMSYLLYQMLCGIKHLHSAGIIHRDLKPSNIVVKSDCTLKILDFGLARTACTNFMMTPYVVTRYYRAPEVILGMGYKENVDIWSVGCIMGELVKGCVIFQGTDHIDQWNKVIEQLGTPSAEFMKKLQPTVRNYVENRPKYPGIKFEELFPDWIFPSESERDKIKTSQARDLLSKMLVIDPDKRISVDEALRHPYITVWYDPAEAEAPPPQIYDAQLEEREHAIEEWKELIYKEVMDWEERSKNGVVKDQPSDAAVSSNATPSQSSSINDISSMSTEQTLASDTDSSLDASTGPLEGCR
The target of the next experiment is CaMKIIα F89G (Homo sapiens, UniProt Q9UQM7, F89G). Put plainly: In vitro kinase reactions with CaMKII F89G ± NM-PP1 (pT286, pS831). Conditions: 10 µM NM-PP1. The method, then: (§1) Fig. 4 The CaMKII mutation F89G impairs ATP binding but binds the ATP-competitive inhibitor NM-PP1 that restores GluN2B binding and LTP-induced synaptic translocation. Data are presented as mean values ± s.e.m. a, Schematic of the pharmacogenetic method of ATP-competitive CaMKII inhibition; enlargement of the CaMKII ATP-binding pocket by the F89G mutation allows for selective binding of the ATP-competitive inhibitor NM-PP1. b, Immunoblots of in vitro kinase reactions at 30 °C including GFP–CaMKII WT, K42M and F89G with GST–GluA1-c tail. […] Correlation indices were measured before and after Ionomycin-induced colocalization of GFP–CaMKII (WT, K42M and F89G) with mCherry-2BC, represented as change in the correlation index (vehicle: n = 22, 17, 12 cells; NM-PP1: n = 20, 24, 13 cells; one-way ANOVA, Tukey’s multiple comparisons test). […] CaMKII synaptic enrichment was measured before and after cLTP (n = 13, 14, 14 cells; RM two-way ANOVA with Šídák’s multiple comparisons test). […] CaMKII synaptic enrichment was measured before and after cLTP (n = 7, 6, 7 cells; RM two-way ANOVA with Šídák’s multiple comparisons test). […]
(§2) CaMKII-mediated phosphorylation of GluA1 S831 or GluN2B S1303 was measured by in vitro kinase reaction with a purified GST–GluA1 C-terminal tail or GST-GluN2B C-terminal tail. […]

Another experiment deals with CaMKIIα WT (Homo sapiens, UniProt Q9UQM7). In words: In vitro kinase reactions with CaMKII WT ± NM-PP1 (pT286, pS831). The method, then:
as §1, §2

Each structure is given as a SMILES string.

Sequence of CaMKIIβ(h) (Q13554 whole entry): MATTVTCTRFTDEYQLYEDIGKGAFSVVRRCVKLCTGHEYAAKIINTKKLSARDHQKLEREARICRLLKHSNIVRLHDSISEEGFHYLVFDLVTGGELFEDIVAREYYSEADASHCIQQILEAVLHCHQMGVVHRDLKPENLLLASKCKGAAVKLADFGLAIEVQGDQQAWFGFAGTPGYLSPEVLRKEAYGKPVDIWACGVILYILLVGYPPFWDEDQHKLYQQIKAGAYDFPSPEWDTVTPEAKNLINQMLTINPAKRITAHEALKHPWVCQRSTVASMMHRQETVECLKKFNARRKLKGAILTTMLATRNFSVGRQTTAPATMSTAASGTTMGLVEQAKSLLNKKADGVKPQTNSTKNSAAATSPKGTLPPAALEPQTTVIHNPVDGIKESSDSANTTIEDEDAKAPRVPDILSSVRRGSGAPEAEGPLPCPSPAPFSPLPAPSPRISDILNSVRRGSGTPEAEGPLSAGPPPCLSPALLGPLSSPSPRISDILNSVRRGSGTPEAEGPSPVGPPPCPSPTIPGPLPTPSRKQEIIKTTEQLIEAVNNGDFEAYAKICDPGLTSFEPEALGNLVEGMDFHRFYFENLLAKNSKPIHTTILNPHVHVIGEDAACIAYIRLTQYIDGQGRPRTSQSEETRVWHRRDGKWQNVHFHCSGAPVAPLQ
Sequence of PAK2(h) (Q13177 whole entry): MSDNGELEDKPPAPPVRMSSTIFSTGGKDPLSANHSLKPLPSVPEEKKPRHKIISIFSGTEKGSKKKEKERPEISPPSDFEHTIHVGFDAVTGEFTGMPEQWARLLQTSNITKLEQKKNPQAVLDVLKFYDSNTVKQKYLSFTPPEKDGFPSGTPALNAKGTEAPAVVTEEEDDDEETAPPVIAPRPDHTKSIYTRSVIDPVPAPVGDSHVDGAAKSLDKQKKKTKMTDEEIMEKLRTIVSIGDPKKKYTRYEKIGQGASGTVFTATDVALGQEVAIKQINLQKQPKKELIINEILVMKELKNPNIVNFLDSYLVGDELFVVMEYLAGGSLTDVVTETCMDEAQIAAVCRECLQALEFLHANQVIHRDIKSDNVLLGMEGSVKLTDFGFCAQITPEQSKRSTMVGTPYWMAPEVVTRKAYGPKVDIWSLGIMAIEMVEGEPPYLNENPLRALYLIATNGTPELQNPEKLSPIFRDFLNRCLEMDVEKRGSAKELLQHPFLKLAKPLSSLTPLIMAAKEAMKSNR
Sequence of cKit(h) (P10721 26-976): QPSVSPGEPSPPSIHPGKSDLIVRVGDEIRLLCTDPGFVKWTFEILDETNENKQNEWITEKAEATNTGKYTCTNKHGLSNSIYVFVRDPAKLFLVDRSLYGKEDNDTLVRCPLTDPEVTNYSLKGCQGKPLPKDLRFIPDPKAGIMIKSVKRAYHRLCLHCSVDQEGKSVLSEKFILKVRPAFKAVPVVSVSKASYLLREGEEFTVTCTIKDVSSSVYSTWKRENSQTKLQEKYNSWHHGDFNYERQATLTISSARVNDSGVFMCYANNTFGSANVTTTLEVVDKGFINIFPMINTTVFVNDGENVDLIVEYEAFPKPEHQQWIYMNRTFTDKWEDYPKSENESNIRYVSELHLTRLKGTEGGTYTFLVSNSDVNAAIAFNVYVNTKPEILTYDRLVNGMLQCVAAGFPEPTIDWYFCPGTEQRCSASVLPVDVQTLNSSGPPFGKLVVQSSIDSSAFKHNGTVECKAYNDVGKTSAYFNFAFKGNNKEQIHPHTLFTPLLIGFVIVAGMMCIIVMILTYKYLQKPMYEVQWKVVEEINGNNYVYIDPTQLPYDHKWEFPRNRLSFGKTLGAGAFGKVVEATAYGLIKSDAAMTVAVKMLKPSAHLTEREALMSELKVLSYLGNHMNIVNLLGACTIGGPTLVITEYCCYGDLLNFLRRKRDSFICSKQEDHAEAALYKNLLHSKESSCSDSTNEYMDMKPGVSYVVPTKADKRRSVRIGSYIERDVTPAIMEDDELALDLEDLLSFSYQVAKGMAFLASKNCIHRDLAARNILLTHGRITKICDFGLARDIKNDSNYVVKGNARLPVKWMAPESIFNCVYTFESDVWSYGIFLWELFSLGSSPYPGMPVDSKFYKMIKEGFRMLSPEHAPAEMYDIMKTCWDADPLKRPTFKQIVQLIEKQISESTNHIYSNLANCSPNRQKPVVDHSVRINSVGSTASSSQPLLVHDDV
Sequence of GSK3β(h) (P49841 whole entry): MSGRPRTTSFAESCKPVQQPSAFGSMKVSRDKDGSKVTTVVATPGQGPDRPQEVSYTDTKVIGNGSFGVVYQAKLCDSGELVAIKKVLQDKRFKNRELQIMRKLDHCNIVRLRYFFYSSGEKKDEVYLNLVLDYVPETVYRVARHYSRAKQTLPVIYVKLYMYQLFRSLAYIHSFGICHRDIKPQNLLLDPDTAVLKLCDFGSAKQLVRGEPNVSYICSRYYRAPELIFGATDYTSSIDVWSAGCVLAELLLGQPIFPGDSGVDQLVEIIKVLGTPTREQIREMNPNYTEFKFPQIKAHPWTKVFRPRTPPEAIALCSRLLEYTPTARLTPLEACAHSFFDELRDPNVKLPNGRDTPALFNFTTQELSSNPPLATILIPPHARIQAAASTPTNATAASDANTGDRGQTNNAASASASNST
Sequence of MAPK2(h) (P28482 whole entry): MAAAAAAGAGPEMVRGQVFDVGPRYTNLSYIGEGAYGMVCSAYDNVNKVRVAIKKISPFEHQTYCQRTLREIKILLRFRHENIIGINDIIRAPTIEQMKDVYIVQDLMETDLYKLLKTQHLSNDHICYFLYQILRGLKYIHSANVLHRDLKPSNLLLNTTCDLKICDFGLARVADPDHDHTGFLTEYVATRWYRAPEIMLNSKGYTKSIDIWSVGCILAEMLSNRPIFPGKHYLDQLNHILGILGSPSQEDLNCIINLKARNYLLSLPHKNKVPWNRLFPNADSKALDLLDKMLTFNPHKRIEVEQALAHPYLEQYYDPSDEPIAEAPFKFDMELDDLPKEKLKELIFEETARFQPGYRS

As for `NCCNc1cccc(-c2ccnc3[nH]c4ccccc4c23)c1` [AS283], the remaining activity at 1 µM at CaMKIIγ(h) is 2%; at PAK2(h) it was 76%; at CaMKIIβ(h), 5%; on PKBγ(h), 42%; on GSK3β(h), 87%; at MAPK2(h), 97%. Moreover, the remaining activity at 1 µM at PDK1(h) amounted to 78%; at cKit(h) it was 50%; on MAPK1(h), 102%. The “residual kinase activity in % of maximal activity” value on JNK2α2(h) is listed as 82%.
On to `CC(C)(C)n1nc(Cc2cccc3ccccc23)c2c(N)ncnc21` [NM-PP1], for which the “effect on residual activity of CaMKII F89G” value on CaMKIIα F89G is on record as “further reduced”. Also, on CaMKIIα WT, the “effect on pT286 for CaMKII WT” value was “did not affect”.

These data come from PMC10482691, “LTP induction by structural rather than enzymatic functions of CaMKII” (Nature, 2023).
